Experimental data as given in ChEMBL document CHEMBL1201862, “PubChem BioAssay data set” (2004).
The source made the active and inactive calls.

Key:
Exodeoxyribonuclease V = biological target: T1, Exodeoxyribonuclease V (Escherichia coli (strain K12), UniProt P04993+P07648+P08394); assay: RecBCD inhibition via phage-restricted bacterial growth – absorbance, V66 E. coli, mutant T4 phage, counter-screen for AddAB inhibitor project, dose response (AID 492957); type: functional, cell-based, Escherichia coli str. K-12 substr. MG1655
T1 sequence (P04993 whole entry): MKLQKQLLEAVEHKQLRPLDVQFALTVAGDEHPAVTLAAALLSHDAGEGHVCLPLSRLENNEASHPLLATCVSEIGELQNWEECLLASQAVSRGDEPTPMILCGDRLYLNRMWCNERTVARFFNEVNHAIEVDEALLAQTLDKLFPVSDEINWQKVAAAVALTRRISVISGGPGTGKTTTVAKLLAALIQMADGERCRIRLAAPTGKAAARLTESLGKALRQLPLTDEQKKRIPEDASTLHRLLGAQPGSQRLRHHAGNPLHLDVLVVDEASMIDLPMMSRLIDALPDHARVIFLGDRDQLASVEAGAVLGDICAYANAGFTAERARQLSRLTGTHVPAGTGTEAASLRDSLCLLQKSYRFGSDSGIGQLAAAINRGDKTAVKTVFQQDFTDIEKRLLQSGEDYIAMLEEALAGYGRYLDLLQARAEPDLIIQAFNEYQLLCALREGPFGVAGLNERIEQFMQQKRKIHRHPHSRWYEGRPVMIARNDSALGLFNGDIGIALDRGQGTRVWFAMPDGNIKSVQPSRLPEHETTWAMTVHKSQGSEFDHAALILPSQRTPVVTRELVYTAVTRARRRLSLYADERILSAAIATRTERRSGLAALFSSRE
T1 sequence (P07648 whole entry): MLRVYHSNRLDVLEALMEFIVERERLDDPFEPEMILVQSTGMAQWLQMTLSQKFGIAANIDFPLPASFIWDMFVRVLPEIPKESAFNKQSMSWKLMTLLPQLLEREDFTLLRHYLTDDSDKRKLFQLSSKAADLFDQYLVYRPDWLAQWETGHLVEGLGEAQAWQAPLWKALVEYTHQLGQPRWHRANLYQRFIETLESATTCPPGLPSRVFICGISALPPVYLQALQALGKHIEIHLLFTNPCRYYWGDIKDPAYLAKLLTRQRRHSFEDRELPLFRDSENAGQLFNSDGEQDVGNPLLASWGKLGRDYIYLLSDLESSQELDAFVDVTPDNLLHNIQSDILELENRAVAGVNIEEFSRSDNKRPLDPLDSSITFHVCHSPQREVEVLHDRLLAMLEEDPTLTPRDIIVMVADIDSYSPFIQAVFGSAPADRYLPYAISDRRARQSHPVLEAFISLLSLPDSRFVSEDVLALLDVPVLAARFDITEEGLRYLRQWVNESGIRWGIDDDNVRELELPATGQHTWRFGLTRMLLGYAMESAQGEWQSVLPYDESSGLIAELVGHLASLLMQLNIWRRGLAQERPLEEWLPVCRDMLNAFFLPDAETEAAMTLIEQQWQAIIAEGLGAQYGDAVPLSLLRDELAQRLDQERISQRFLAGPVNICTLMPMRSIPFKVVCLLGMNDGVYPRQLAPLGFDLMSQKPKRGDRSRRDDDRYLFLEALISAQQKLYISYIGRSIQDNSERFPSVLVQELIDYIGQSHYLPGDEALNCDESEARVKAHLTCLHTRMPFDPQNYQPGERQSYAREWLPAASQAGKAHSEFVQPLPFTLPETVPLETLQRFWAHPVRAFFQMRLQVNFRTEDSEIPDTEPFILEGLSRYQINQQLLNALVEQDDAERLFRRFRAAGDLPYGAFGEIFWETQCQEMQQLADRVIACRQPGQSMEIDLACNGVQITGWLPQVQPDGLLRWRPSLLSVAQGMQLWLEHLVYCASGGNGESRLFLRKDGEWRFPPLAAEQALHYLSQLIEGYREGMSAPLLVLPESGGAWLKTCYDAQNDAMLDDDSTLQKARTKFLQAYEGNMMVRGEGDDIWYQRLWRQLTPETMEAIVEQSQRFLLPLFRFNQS
T1 sequence (P08394 whole entry): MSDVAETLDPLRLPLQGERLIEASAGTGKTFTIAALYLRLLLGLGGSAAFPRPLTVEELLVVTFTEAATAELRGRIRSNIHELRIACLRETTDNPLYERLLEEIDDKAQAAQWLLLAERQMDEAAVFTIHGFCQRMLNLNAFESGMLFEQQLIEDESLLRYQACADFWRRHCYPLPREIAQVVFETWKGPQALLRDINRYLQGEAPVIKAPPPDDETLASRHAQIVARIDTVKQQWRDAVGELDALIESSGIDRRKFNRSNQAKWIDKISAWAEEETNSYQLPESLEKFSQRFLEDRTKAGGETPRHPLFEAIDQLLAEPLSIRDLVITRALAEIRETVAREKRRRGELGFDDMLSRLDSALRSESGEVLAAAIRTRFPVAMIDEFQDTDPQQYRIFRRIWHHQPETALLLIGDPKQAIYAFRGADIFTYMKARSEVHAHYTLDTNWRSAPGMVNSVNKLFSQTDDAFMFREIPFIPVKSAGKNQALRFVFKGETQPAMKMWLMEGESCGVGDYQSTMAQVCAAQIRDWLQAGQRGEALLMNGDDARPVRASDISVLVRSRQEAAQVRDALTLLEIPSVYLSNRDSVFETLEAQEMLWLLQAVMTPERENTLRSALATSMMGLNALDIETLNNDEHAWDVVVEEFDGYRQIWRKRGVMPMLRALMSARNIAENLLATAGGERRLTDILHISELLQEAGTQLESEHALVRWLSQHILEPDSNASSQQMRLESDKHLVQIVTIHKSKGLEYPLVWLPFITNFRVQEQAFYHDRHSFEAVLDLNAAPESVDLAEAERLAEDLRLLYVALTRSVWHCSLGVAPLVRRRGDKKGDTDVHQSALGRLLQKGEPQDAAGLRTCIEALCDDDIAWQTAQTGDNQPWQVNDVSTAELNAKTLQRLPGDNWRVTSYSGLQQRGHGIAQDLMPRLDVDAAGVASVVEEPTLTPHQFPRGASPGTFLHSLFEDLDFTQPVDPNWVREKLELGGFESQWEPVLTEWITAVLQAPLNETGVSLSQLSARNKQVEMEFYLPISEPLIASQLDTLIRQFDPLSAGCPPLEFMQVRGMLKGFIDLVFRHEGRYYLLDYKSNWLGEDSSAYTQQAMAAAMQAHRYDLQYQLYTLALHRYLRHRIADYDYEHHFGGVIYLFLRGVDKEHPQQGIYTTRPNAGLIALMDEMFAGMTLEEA

Paired box protein Pax-8 = Paired box protein Pax-8 (Homo sapiens, UniProt Q06710); assay: PAX8 transcriptional activity inhibition in RMG-I – RMG-I cells, luciferase, cherry-pick, dose response (AID 687027); type: functional, cell-based;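 further: luciferase reporter driven by Pax8 target thyroperoxidase promoter measured by SteadyGlo luminescence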
INS1 = assay: INS-1E survival protection against cytokine death – cell-based, luminescence, retest, dose response (AID 449756); type: functional; details: Rattus norvegicus;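 further: cell death triggered by IL-1 beta plus TNF-alpha plus IFN-gamma mixture; protective hits raise ATP signal compared with cytokine alone wells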

Paired box protein Pax-8, sequence (Q06710 whole entry): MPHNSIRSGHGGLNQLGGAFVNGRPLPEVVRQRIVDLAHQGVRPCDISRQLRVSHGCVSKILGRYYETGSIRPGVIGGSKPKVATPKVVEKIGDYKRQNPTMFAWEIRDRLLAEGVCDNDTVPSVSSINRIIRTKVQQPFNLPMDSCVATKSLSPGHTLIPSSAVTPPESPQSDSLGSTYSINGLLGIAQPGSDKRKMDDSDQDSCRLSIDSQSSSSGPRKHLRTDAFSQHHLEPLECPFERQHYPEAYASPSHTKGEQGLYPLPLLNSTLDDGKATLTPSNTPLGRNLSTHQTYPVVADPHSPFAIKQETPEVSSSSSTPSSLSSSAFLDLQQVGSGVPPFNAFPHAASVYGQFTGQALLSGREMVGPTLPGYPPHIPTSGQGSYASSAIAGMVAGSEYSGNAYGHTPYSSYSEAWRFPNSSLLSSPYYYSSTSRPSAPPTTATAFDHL

| Compound | IC50 (Exodeoxyribonuclease V) | AC50 (Paired box protein Pax-8) | AC50 (INS1) |
| --- | --- | --- | --- |
| O=C(/C=C/c1cccs1)NC(=S)NNC(=O)c1ccccc1O | 114000 nM (inactive) | 2350 nM (active) | – |
| CC(=O)N(Cc1ccc(F)cc1)C1=C(NCCc2ccccc2)C(=O)c2ccccc2C1=O | – | – | 2180 nM (active) |
| CCCCC(=O)NC(c1ccccc1)c1ccc2cccnc2c1O (stereo unspecified) | > 118000 nM (inactive) | 3240 nM (active) | 614 nM (active) |
